Experimental data as given in the METLIN SMRT retention time set (Domingo-Almenara et al. 2019).

Assay: gradient 5% acetonitrile 3 min, to 50% in 2 min, to 85% in 15 min, held 3 min, 100 µL/min
Conditions: column: Zorbax Extend-C18 2.1 x 50 mm; eluents: water / acetonitrile, 0.1% formic acid
In short: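 Standards, all pure, were combined into mixtures of ~100 molecules and run at 100 μL/min on a Zorbax Extend-C18 column (2.1 × 50 mm, 1.8 μm) with water and acetonitrile, each containing 0.1% formic acid. A coupled quadrupole time-of-flight mass spectrometer operated in positive and negative ionization mode. Retention time values come from computationally picked adduct peaks, each inspected manually.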

Q: For `CC(=O)Nc1cc(-c2nc(-c3ccc4oc(-c5ccccc5)nc4c3)no2)ccc1C`, which RP-LC retention time is on record?
A: 738 s

Q: Which RP-LC retention time does the source give for `CC1CCN(c2nn(CC(=O)NCc3cccs3)c(=O)c3ccccc23)CC1` here?
A: 1030 s

Q: With `CCCNC(=O)c1cnn2c3c(cnc12)CCCCCC3` as the compound, how does the RP-LC retention time read?
A: 976 s

Q: Which RP-LC retention time does the source give for `Cc1ccc(CN2CC3(CCCCC3)CC2COc2ccncc2)nc1` (stereo unspecified) here?
A: 615 s

Q: With `Cc1cccc(-c2noc(Cn3c(=O)n(-c4cccc(C)c4)c(=O)c4sccc43)n2)c1` as the compound, how does the RP-LC retention time read?
A: 1090 s

Q: For `O=C(NCc1ccc(Cl)cc1)C1CC(=O)N(c2n[nH]c3cccc(F)c23)C1` (stereo unspecified), which RP-LC retention time is on record?
A: 833 s

Q: Which RP-LC retention time does the source give for `Cc1ccc(-n2ncc3c(N4CCN(C)CC4)ncnc32)cc1C` here?
A: 648 s

Q: For `O=C(Nc1ccc(F)c(Cl)c1)Nc1c(-c2ccncc2)nc2ccccn12`, which RP-LC retention time is on record?
A: 628 s

Q: With `COc1ccc(N2CCn3c(SCC(=O)Nc4nc5ccccc5s4)nnc32)cc1` as the compound, how does the RP-LC retention time read?
A: 742 s

Q: Which RP-LC retention time does the source give for `Cc1cccc(NC(=O)c2ccc(N3CCCC3)nn2)n1` here?
A: 612 s

Q: For `COc1ccc(-c2cc3c4nnc(CCC(=O)N5CCC(C(N)=O)CC5)n4ccn3n2)cc1`, which RP-LC retention time is on record?
A: 613 s

Q: For `Cn1ncc2c(Nc3ccc(O)cc3)nc(Cl)nc21`, which RP-LC retention time is on record?
A: 731 s

Q: For `COC(=O)c1ccc(NC(=O)N2CCC(n3cnc4ccc(Cl)cc4c3=O)CC2)cc1`, which RP-LC retention time is on record?
A: 830 s

Q: For `CCCNC(=O)Nc1cccc(-c2noc(-c3ccc4c(c3)OCO4)n2)c1`, which RP-LC retention time is on record?
A: 941 s

Q: With `COC1C(=O)N(c2cccc(F)c2)C12CCN(C(=O)C1(c3ccccc3)CC1)CC2` (stereo unspecified) as the compound, how does the RP-LC retention time read?
A: 994 s

Q: Which RP-LC retention time does the source give for `CC(=O)N1CC[C@]2(CO)CN(C(=O)c3ccoc3C)C[C@@H]2C1` here?
A: 583 s

Q: For `CCOc1cc(C2NC(=O)c3[nH]nc(-c4cccc(OC)c4)c32)ccc1O` (stereo unspecified), which RP-LC retention time is on record?
A: 669 s

Q: With `CCC(C)NC(=O)C1COC2(CCN(C(=O)CC(C)(C)C)CC2)N1C(=O)c1ccc(OC)cc1` (stereo unspecified) as the compound, how does the RP-LC retention time read?
A: 760 s

Q: Which RP-LC retention time does the source give for `Cc1cccc(CNC(=O)c2ncn3c2C(=O)N(C2CC2)C(C)(C(=O)NC2CCCC2)C3)c1` (stereo unspecified) here?
A: 784 s

Q: For `O=C(C1CC=CC1)N1CCC2(CC1)NCCc1c2[nH]c2ccccc12`, which RP-LC retention time is on record?
A: 643 s

Q: With `CC1CCN(S(=O)(=O)c2ccc3nn(Cc4cccc(C#N)c4)c(=O)n3c2)CC1` as the compound, how does the RP-LC retention time read?
A: 768 s

Q: With `O=C(CSc1nccn1Cc1ccc(Cl)cc1)NCCc1ccccc1` as the compound, how does the RP-LC retention time read?
A: 644 s

Q: Which RP-LC retention time does the source give for `Cc1ccc(CNC(=O)c2nnc(-c3ccc(S(=O)(=O)N(C)C)cc3)o2)o1` here?
A: 826 s

Q: With `O=C(Nc1ccc(F)c(Cl)c1)N1CCCC(Cn2c(C3CC3)nc3cccnc32)C1` (stereo unspecified) as the compound, how does the RP-LC retention time read?
A: 744 s

Q: For `CCOC(=O)N1CCN(C(=O)C2CN(c3nc4ccc(OC)cc4s3)C2)CC1`, which RP-LC retention time is on record?
A: 650 s

Q: For `CCN1CCN(c2cc(-c3ccc(F)cc3)c3c(n2)CCCCCC3)CC1`, which RP-LC retention time is on record?
A: 765 s

Q: For `Cc1ccc(NC(=O)Cn2cccc2-c2nnc(C3CCC3)o2)cc1F`, which RP-LC retention time is on record?
A: 973 s

Q: Which RP-LC retention time does the source give for `COc1nn(C)cc1C(=O)NCC(c1ccco1)N1CCN(c2ccc(F)cc2)CC1` (stereo unspecified) here?
A: 581 s

Q: For `CCOC(=O)c1sc(NC(=O)C2CCCCN2S(C)(=O)=O)cc1C` (stereo unspecified), which RP-LC retention time is on record?
A: 807 s

Q: Which RP-LC retention time does the source give for `Cc1ccc(C(=O)N2CCN(S(=O)(=O)c3cc(-c4noc(C5CCC5)n4)cs3)CC2)s1` here?
A: 1060 s

Q: With `O=C(c1cc2c(s1)CCC(C(=O)N1CCOCC1)C2)N1CCCCC1` (stereo unspecified) as the compound, how does the RP-LC retention time read?
A: 701 s

Q: Which RP-LC retention time does the source give for `O=C(c1cc(-c2cccnc2)n[nH]1)N1CCN(C(=O)c2cccc3[nH]ccc23)CC1` here?
A: 598 s

Q: For `CCn1c(C(=O)NCCCc2ccccc2)cc2c(-c3cccs3)nn(-c3ccccc3)c21`, which RP-LC retention time is on record?
A: 1280 s

Q: For `CC1CCN(S(=O)(=O)c2ccc3nn(CC(=O)OC(C)C)c(=O)n3c2)CC1`, which RP-LC retention time is on record?
A: 929 s

Q: With `CCc1ccccc1NC(=O)Cn1c(N)nc(C(C)C)cc1=O` as the compound, how does the RP-LC retention time read?
A: 638 s

Q: Which RP-LC retention time does the source give for `CCOc1ncccc1CNC(=O)NCc1cccc(OC)c1` here?
A: 570 s

Q: With `Cc1noc2ncn(CC(=O)NCCc3ccccc3Cl)c(=O)c12` as the compound, how does the RP-LC retention time read?
A: 792 s

Q: With `CC1(C(=O)NC2CCCCC2)CN(S(=O)(=O)c2ccccc2)CC(=O)N1c1ccc(F)cc1` (stereo unspecified) as the compound, how does the RP-LC retention time read?
A: 959 s

Q: For `COC(=O)c1ccc(Cl)cc1NC(=O)N1CCCn2nc(-c3ccncc3)cc2C1`, which RP-LC retention time is on record?
A: 715 s

Q: For `CS(=O)(=O)c1ccccc1C(=O)Nc1nnc(-c2cc(Cl)sc2Cl)o1`, which RP-LC retention time is on record?
A: 735 s

Q: With `CCOc1cccc(CN2C[C@@H](CO)[C@H](c3ccncc3)C2)c1` as the compound, how does the RP-LC retention time read?
A: 546 s

Q: Which RP-LC retention time does the source give for `CCOC(=O)c1cnc2c(C)cc(C)cc2c1NCCCN(C)C` here?
A: 565 s

Q: Which RP-LC retention time does the source give for `CCCNC(=O)CCc1nc2ccccc2n(CC(=O)Nc2cc(Cl)c(OC)cc2OC)c1=O` here?
A: 790 s

Q: For `CCN(CC)C(=O)c1ccc2c(c1)nnn2CCNC(=O)Nc1ccc(Br)cc1`, which RP-LC retention time is on record?
A: 779 s

Q: With `Cc1noc(C)c1CCC(=O)NCCOc1cccc2cccnc12` as the compound, how does the RP-LC retention time read?
A: 548 s

Q: For `Cc1onc(-c2ccccc2Cl)c1C(=O)NCC1(c2cccs2)CC1`, which RP-LC retention time is on record?
A: 950 s

Q: For `CC(C)n1c(=O)c(NCc2ccc(N3CCOCC3)cc2)nc2ccncc21`, which RP-LC retention time is on record?
A: 606 s

Q: With `CC(=O)Nc1c(C)nn(-c2ccccc2)c1N1CCC(C(=O)NCC2COCCO2)CC1` (stereo unspecified) as the compound, how does the RP-LC retention time read?
A: 605 s

Q: Which RP-LC retention time does the source give for `COc1ccc(Nc2nc(N)c3ccccc3n2)cc1` here?
A: 610 s

Q: For `O=C(NCC1CCCO1)N1CC(c2nc(CCOCc3ccccc3)no2)C1` (stereo unspecified), which RP-LC retention time is on record?
A: 713 s

Q: For `Cc1cccc(-n2c(=O)c3c(cc(C)n3C)n(CC(=O)Nc3ccc(C(F)(F)F)cc3)c2=O)c1`, which RP-LC retention time is on record?
A: 968 s

Q: With `CCn1cnc(S(=O)(=O)N2CCCC(C(=O)NCc3ccc(C)cc3)C2)c1` (stereo unspecified) as the compound, how does the RP-LC retention time read?
A: 803 s

Q: For `Cc1cccc(N2CCN(C(=O)c3ccc(-c4csc(C5CC5)n4)cc3)CC2C)c1` (stereo unspecified), which RP-LC retention time is on record?
A: 1120 s

Q: For `Cc1ccc2c(c1)C(=O)NC1(CCN(C(=O)c3cc(F)cc(F)c3)CC1)N2C`, which RP-LC retention time is on record?
A: 752 s

Q: With `COCCN1CCn2cc(S(=O)(=O)Nc3ccccc3OC)cc2C1=O` as the compound, how does the RP-LC retention time read?
A: 679 s

Q: For `COCc1nncn1C1CCN(S(=O)(=O)c2ccc(Cl)cc2C)CC1`, which RP-LC retention time is on record?
A: 770 s

Q: With `CCn1c(C(=O)NCCCN2CCOCC2)c(N2CCCC2=O)c2cc(F)ccc21` as the compound, how does the RP-LC retention time read?
A: 624 s

Q: For `COc1ccc(C)cc1NC(=O)Cn1cnc2nc(N3CCC(C(=O)NC4CC4)CC3)sc2c1=O`, which RP-LC retention time is on record?
A: 723 s

Q: Which RP-LC retention time does the source give for `COc1ccc2[nH]c(=O)c(CCC(=O)NCc3cccnc3)cc2c1` here?
A: 571 s

Q: Which RP-LC retention time does the source give for `Fc1ccc(C(c2nnc(-c3ccccc3Cl)o2)N2CCN(c3ccccn3)CC2)cc1` (stereo unspecified) here?
A: 774 s

Q: With `COc1cn2c(cc1=O)C(=O)N(CCNC(=O)c1cc(=O)c3ccccc3o1)CC2` as the compound, how does the RP-LC retention time read?
A: 562 s

Q: With `COc1ccc(Cn2nnc(C(=O)NCC3CC3)c2-n2cccc2)cc1` as the compound, how does the RP-LC retention time read?
A: 924 s

Q: For `O=C(NCc1ccccc1C(F)(F)F)c1cn2c(n1)CCCC2`, which RP-LC retention time is on record?
A: 640 s

Q: Which RP-LC retention time does the source give for `CC1(C(=O)NCc2cc(F)ccc2F)CCCCC(=O)N1` (stereo unspecified) here?
A: 674 s

Q: For `CCN(CCCNC(=O)C1CCN(c2nccc3c(C)nn(C)c23)CC1)c1ccccc1`, which RP-LC retention time is on record?
A: 574 s

Q: Which RP-LC retention time does the source give for `O=C(NC1CC1)c1ccc(OCC2CCN(C(=O)Cc3cccs3)CC2)cc1` here?
A: 780 s
